Measured values as given in patent US10927123B2, “Modulators of the beta-3 adrenergic receptor useful for the treatment or prevention of disorders related thereto” (Arena Pharmaceuticals, Inc., priority 2016, dated 2021).

The molecules below were run against Beta-3 Adrenergic Receptor (Homo sapiens (Human), UniProt P13945) (assay: HTRF cAMP antagonist assay (IC50 determination)). Settings: CHO-K1 cells stably expressing recombinant receptor; antagonism of isoproterenol at EC90; cAMP readout.
Assay type: cell-based
Protocol: HTRF cAMP assays were performed according to manufacturer's instructions (Cisbio, cAMP Dynamic 2 Assay Kit; #62AM4PEJ). CHO-K1 cells stably expressing recombinant receptor were harvested and suspended in warm PBS to make a 300,000 cells/mL stock. This cell suspension was dispensed into 384 well assay plates (PerkinElmer ProxiPlate #6008280) at 5 μL per well (1500 cells/well) along with a cAMP standard curve.
Compounds were dissolved and serially diluted (5-fold) in DMSO to generate a 10-point dose response stock. The stock was then diluted 100-fold in assay buffer (PBS containing 1 mM IBMX) before a volume of 2.5 μL was added to the cells (the final, top concentration of compound in the dose-response is typically 10 or 100 μM). After a brief incubation, 2.5 μL of isoproterenol stock, prepared at a concentration 4 times its EC90 at the receptor of interest, was added to the wells. The EC90 for isoproterenol, a beta-adrenergic agonist, was determined in separate experiments using standard methods to measure agonist potencies.
Following a 1-hour incubation at room temperature, 5 μL of cAMP-D2 Reagent diluted in Lysis Buffer was added to each well followed by 5 μL of Cryptate Reagent. Plates were further incubated at room temperature for 1 hour prior to reading. Time resolved fluorescence measurements were collected on a suitable, HTRF-capable plate reader.
Counts from the plate reader were fit to the cAMP standard curve on the assay plate in order to determine cAMP concentrations in each well, and these values were used to construct dose-response curves to obtain IC50 values.

Chain of Beta-3 Adrenergic Receptor (P13945 whole entry, species assumed): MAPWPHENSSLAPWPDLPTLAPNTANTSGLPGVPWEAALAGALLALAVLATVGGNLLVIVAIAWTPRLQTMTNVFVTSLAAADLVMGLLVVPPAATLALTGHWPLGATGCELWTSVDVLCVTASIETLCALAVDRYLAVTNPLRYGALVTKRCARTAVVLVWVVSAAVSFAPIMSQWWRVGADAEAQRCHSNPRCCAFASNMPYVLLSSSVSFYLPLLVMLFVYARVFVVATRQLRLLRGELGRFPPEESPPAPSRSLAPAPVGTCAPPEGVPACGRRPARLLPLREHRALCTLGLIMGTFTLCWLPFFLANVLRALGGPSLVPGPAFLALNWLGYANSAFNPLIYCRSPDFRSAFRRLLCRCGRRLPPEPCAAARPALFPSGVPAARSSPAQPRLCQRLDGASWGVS

SMILES | IC50 [µM]
CC(C)CCS(=O)(=O)c1cccc(OC[C@@H](O)CNC2COC3(CCN(S(=O)(=O)c4ccc5ccccc5c4)CC3)C2)c1 (stereo partly drawn) [Compound 11, (2S)-1-(3-(isopentylsulfonyl)phenoxy)-3-(8-(naphthalen-2-ylsulfonyl)-1-oxa-8-azaspiro[4.5]decan-3-ylamino)propan-2-ol] | 0.0355
Cc1c(S(=O)(=O)N2CCC3(CC2)C[C@@H](NC[C@H](O)COc2cccc(S(=O)(=O)C4CC4)c2)CO3)cnc2c1N(C)CCO2 [Compound 275, (S)-1-(3-(cyclopropylsulfonyl)phenoxy)-3-((R)-8-(1,8-dimethyl-2,3-dihydro-1H-pyrido[2,3-b][1,4]oxazin-7-ylsulfonyl)-1-oxa-8-azaspiro[4.5]decan-3-ylamino)propan-2-ol] | 0.0623
CCn1cc(S(=O)(=O)N2CCC3(CC2)C[C@@H](NC[C@H](O)COc2cccc(S(=O)(=O)C(C)C)c2)CO3)c(=O)c2cccc(F)c21 [Compound 331, 1-ethyl-8-fluoro-3-((R)-3-((S)-2-hydroxy-3-(3-(isopropylsulfonyl)phenoxy)propylamino)-1-oxa-8-azaspiro[4.5]decan-8-ylsulfonyl)quinolin-4(1H)-one] | 0.03
CCOc1ccc(-c2ccc(C3(N)CC3)cc2)cc1S(=O)(=O)N1CCC2(CC1)C[C@H](NC[C@H](O)COc1cccc(S(=O)(=O)C3CC3)c1)CO2 [Compound 252] | 0.0293
CCOc1ccc(-c2ccc(CN)cc2)cc1S(=O)(=O)N1CCC2(CC1)C[C@@H](NC[C@H](O)COc1cccc(S(=O)(=O)C(F)(F)CO)c1)CO2 [Compound 161, (S)-1-((R)-8-(4′-(aminomethyl)-4-ethoxybiphenyl-3-ylsulfonyl)-1-oxa-8-azaspiro[4.5]decan-3-ylamino)-3-(3-(1,1-difluoro-2-hydroxyethylsulfonyl)phenoxy)propan-2-ol] | 0.0211
CC(F)S(=O)(=O)c1cccc(OC[C@@H](O)CN[C@H]2COC3(CCN(S(=O)(=O)c4ccc5ncccc5c4)CC3)C2)c1 (stereo partly drawn) [Compound 234, (2S)-1-(3-(1-fluoroethylsulfonyl)phenoxy)-3-((R)-8-(quinolin-6-ylsulfonyl)-1-oxa-8-azaspiro[4.5]decan-3-ylamino)propan-2-ol] | 0.0102
NC1(c2ccc(-c3cccc(S(=O)(=O)N4CCC5(CC4)C[C@H](NC[C@H](O)COc4cccc(S(=O)(=O)C6(CO)CC6)c4)CO5)c3)cc2)CC1 [Compound 184, (S)-1-((S)-8-(4′-(1-aminocyclopropyl)biphenyl-3-ylsulfonyl)-1-oxa-8-azaspiro[4.5]decan-3-ylamino)-3-(3-(1-(hydroxymethyl)cyclopropylsulfonyl)phenoxy)propan-2-ol] | 0.0267
CC(C)CNCc1ccc(-c2cccc(S(=O)(=O)N3CCC4(CC3)C[C@@H](NC[C@H](O)COc3cccc(S(=O)(=O)C5(CO)CC5)c3)CO4)c2)cc1 [Compound 272, (S)-1-(3-(1-(hydroxymethyl)cyclopropylsulfonyl)phenoxy)-3-((R)-8-(4′-((isobutylamino)methyl)biphenyl-3-ylsulfonyl)-1-oxa-8-azaspiro[4.5]decan-3-ylamino)propan-2-ol] | 0.566
COc1ccc(S(=O)(=O)N2CCC3(CC2)C[C@H](NC[C@H](O)COc2cccc(S(=O)(=O)C4(CO)CC4)c2)CO3)cc1-c1ccc(CCN)cc1 [Compound 215, (S)-1-((S)-8-(4′-(2-aminoethyl)-6-methoxybiphenyl-3-ylsulfonyl)-1-oxa-8-azaspiro[4.5]decan-3-ylamino)-3-(3-(1-(hydroxymethyl)cyclopropylsulfonyl)phenoxy)propan-2-ol] | 0.0384
C[C@H]1CN(C)c2cc(S(=O)(=O)N3CCC4(CC3)C[C@H](NC[C@H](O)COc3cccc(S(=O)(=O)C5CC5)c3)CO4)cnc2O1 [Compound 277, (S)-1-(3-(cyclopropylsulfonyl)phenoxy)-3-((S)-8-((S)-1,3-dimethyl-2,3-dihydro-1H-pyrido[2,3-b][1,4]oxazin-7-ylsulfonyl)-1-oxa-8-azaspiro[4.5]decan-3-ylamino)propan-2-ol] | 0.0165
